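Cells were grown in 96-well plates and exposed to each compound for 48 hours at five concentrations; endpoints were interpolated linearly between bracketing concentrations, or set to the highest concentration if not reached. GI50 = concentration required for 50% inhibition of growth.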 Calls of active or inactive are those of the source. Cut-off read from the data, not from the text of the source: active = GI50 up to about 1.1 µM and inactive = higher.
Experiments:
Test in all cases: NCI-60 cell line screen, 48 h
[1] = test system: CAKI-1
[2] = test system: EKVX
[3] = test system: COLO 205
[4] = test system: RPMI-8226
[5] = test system: OVCAR-8
[6] = test system: UACC-257
[7] = test system: MOLT-4
[8] = test system: ACHN
[9] = test system: OVCAR-4
[10] = test system: SK-MEL-2
[11] = test system: HCC 2998
[12] = test system: LOX IMVI
[13] = test system: OVCAR-5
[14] = test system: SK-MEL-5
[15] = test system: 786-0
[16] = test system: UO-31

Measured: GI50

CC(C)(C)[Si](C)(C)O/N=C\c1ccc(O[Si](C)(C)C(C)(C)C)cc1
inactive: [1] > 100 µM | [2] > 100 µM | [3] > 100 µM | [4] 57.5 µM | [5] 62.8 µM | [6] > 100 µM | [7] 41.3 µM | [8] 37.6 µM | [9] > 100 µM | [10] > 100 µM | [11] 36.8 µM | [12] 21.3 µM | [13] 44.1 µM | [14] > 100 µM | [15] 38.5 µM | [16] 50.9 µM

COc1ccc(C[C@@H]2Cc3cc(OC)c(OC)cc3CN2C)cc1
inactive: [1] 59.7 µM | [2] > 100 µM | [4] > 100 µM | [5] > 100 µM | [6] > 100 µM | [7] > 100 µM | [8] > 100 µM | [9] 76.4 µM | [10] > 100 µM | [11] > 100 µM | [13] > 100 µM | [14] > 100 µM | [15] > 100 µM | [16] > 100 µM

O=S(=O)(OI(OI(OS(=O)(=O)C(F)(F)F)c1ccccc1)c1ccccc1)C(F)(F)F
inactive: [1] 27.8 µM | [2] 58.9 µM | [3] 51.2 µM | [4] 11.6 µM | [5] 48.8 µM | [7] 20.2 µM | [8] 52.1 µM | [10] 38.5 µM | [11] > 100 µM | [12] 20 µM | [13] > 100 µM | [14] 13.5 µM | [15] 50.4 µM | [16] 47.2 µM

CC(/C(=N/NC(=O)C(N)=O)c1c(Cl)ccc(Cl)c1O)C1(O)C(=O)Nc2ccccc21 (stereo unspecified)
inactive: [1] 42.1 µM | [2] 43.3 µM | [3] 23.2 µM | [5] 29.7 µM | [6] 53.3 µM | [8] 26.5 µM | [9] 29.6 µM | [10] 33.3 µM | [11] 65.3 µM | [12] 30.1 µM | [13] 34.8 µM | [14] 34.6 µM | [15] 57 µM | [16] 38 µM

C[C@@H]1OC(=O)N2CCCC(=C3SCCCS3)C12 (stereo partly specified)
inactive: [2] > 100 µM | [3] > 100 µM | [4] 36.9 µM | [5] 57.9 µM | [6] 37.1 µM | [7] 33.3 µM | [8] 93.5 µM | [9] > 100 µM | [10] > 100 µM | [12] 94 µM | [13] > 100 µM | [15] > 100 µM | [16] 19.4 µM

Reference: ChEMBL document CHEMBL1201862, “PubChem BioAssay data set” (2004)
